Laboratory results: patent publication US20120282187A1 (BOEHRINGER INGELHEIM INTERNATIONAL GMBH, priority 2008, published 2012)
Where two headings read alike, the source gives them in different places.

Key:
[1] = Clinical pharmacokinetics and pharmacodynamics of dabigatran etexilate; type: in vivo
Description: Ezekowitz M D, et al., Dabigatran with or without concomitant aspirin compared with warfarin alone in patients with nonvalvular atrial fibrillation (PETRO study), Am. […] The PETRO study is described below.
As noted above, management of warfarin therapy is complex, and failure to adequately monitor patients is associated with risk. […] It also interacts with many common foods, drugs and alcohol which alter its therapeutic effect, putting patients at risk of either a bleeding or thrombotic event. Therefore, warfarin therapy requires careful individualized dosing and frequent monitoring. The significant limitations of VKAs have created a need for an oral anticoagulant with a rapid onset of action, minimal drug interactions, and a predictable anticoagulation effect that needs no monitoring.
(§1) Peak levels are seen within 2-3 hours of oral administration. […] Steady-state is reached within 2-3 days with a twice daily regimen. […] The remainder undergoes conjugation with glucuronic acid to form acylglucuronides which are excreted primarily in the bile.

[2] = tested on: cytochrome P-450 drug metabolizing enzymes; assay: Cytochrome P-450 interaction; type: in vitro ADME
Protocol: as §1

[3] = tested on: patients with atrial fibrillation
Protocol: The PETRO-Ex study was conducted in 52 centers in the United States, Denmark, The Netherlands, and Sweden.
PETRO-Ex began while the PETRO study was ongoing and investigators were initially kept blinded to patient treatment group until PETRO was completed. Unblinding investigators to patient treatment was possible thereafter.
Data were summarized descriptively; no hypothesis was to be tested. Events were analyzed on the basis of the treatment at onset. Incidences were reported as of patients with events as well as normalized to 100 patient-years on the respective treatment.
Patients who were down titrated to 50 mg q.d. based on a glomerular filtration rate≦50 mL/min during PETRO were excluded from the long-term trial; patients down-titrated in other dose levels remained on the q.d. treatment at that dose.
The total exposure reflects both trials, PETRO and PETRO-Ex, together.

CCCCCCOC(=O)NC(=N)c1ccc(NCc2nc3cc(C(=O)N(CCC(=O)OCC)c4ccccn4)ccc3n2C)cc1 [Dabigatran etexilate, 1-methyl-2-[N-[4-(N-n-hexyloxycarbonylamidino)phenyl]aminomethyl]benzimidazol-5-ylcarboxylic acid-N-(2-pyridyl)-N-(2-ethoxycarbonylethyl)amides]
effect of oral strong P-gp inhibitors verapamil, quinidine or amiodarone on dabigatran plasma concentrations ([1]; concomitant with dabigatran etexilate): elevate dabigatran plasma concentrations | food interactions ([1]; in vivo): no food interactions | onset of anticoagulant effect ([1]; time after dosing): one | metabolism by, induction or inhibition of cytochrome P-450 drug metabolizing enzymes [2]: not metabolized by and does not induce or inhibit | ALT or AST >2xULN, number ([3]; 50 mg b.i.d.): 0 | ALT or AST >3xULN and Bili >2xULN within 30 days, number ([3]; 50 mg b.i.d.): 0 | ALT or AST >3xULN, number ([3]; 50 mg b.i.d.): 0 | ALT or AST >5xULN, number ([3]; 50 mg b.i.d.): 0 | Adverse Events leading to premature discontinuation, number ([3]; 50 mg b.i.d.): 5 | Adverse Events leading to premature discontinuation, rate ([3]; 50 mg b.i.d.): 21.3 per 100 patient-years | MI, number ([3]; 50 mg b.i.d.): 0 | Major Bleeds with aspirin, number ([3]; 50 mg b.i.d.): 0 | Major Bleeds without aspirin, number ([3]; 50 mg b.i.d.): 0 | Major Bleeds, number ([3]; 50 mg b.i.d.): 0 | Other MACE, number ([3]; 50 mg b.i.d.): 2 | Stroke and Systemic Thromboembolism, number ([3]; 50 mg b.i.d.): 3 | TIA, number ([3]; 50 mg b.i.d.): 0 | ALT or AST >2xULN, number ([3]; 50 mg q.d.): 0 | ALT or AST >3xULN and Bili >2xULN within 30 days, number ([3]; 50 mg q.d.): 0 | ALT or AST >3xULN, number ([3]; 50 mg q.d.): 0 | ALT or AST >5xULN, number ([3]; 50 mg q.d.): 0 | Adverse Events leading to premature discontinuation, number ([3]; 50 mg q.d.): 0 | MI, number ([3]; 50 mg q.d.): 0 | Major Bleeds with aspirin, number ([3]; 50 mg q.d.): 0 | Major Bleeds without aspirin, number ([3]; 50 mg q.d.): 0 | Major Bleeds, number ([3]; 50 mg q.d.): 0 | Other MACE, number ([3]; 50 mg q.d.): 0 | Stroke and Systemic Thromboembolism, number ([3]; 50 mg q.d.): 0 | TIA, number ([3]; 50 mg q.d.): 0 | ALT or AST >2xULN, number ([3]; 150 mg b.i.d.): 21 | ALT or AST >2xULN, rate ([3]; 150 mg b.i.d.): 3.1 per 100 patient-years | ALT or AST >3xULN and Bili >2xULN within 30 days, number ([3]; 150 mg b.i.d.): 3 | ALT or AST >3xULN and Bili >2xULN within 30 days, rate ([3]; 150 mg b.i.d.): 0.4 per 100 patient-years | ALT or AST >3xULN, number ([3]; 150 mg b.i.d.): 13 | ALT or AST >3xULN, rate ([3]; 150 mg b.i.d.): 1.9 per 100 patient-years | ALT or AST >5xULN, number ([3]; 150 mg b.i.d.): 7 | ALT or AST >5xULN, rate ([3]; 150 mg b.i.d.): 1.0 per 100 patient-years | Adverse Events leading to premature discontinuation, number ([3]; 150 mg b.i.d.): 67 | Adverse Events leading to premature discontinuation, rate ([3]; 150 mg b.i.d.): 9.8 per 100 patient-years | MI, number ([3]; 150 mg b.i.d.): 6 | Major Bleeds with aspirin, number ([3]; 150 mg b.i.d.): 11 | Major Bleeds with aspirin, rate ([3]; 150 mg b.i.d.): 8.7 per 100 patient-years | Major Bleeds without aspirin, number ([3]; 150 mg b.i.d.): 18 | Major Bleeds without aspirin, rate ([3]; 150 mg b.i.d.): 3.2 per 100 patient-years | Major Bleeds, number ([3]; 150 mg b.i.d.): 29 | Major Bleeds, rate ([3]; 150 mg b.i.d.): 4.2 per 100 patient-years | Major bleeding events ([3]; 150 mg b.i.d.): 4.2 % per year | Other MACE, number ([3]; 150 mg b.i.d.): 7 | Stroke and Systemic Thromboembolism, number ([3]; 150 mg b.i.d.): 7 | TIA, number ([3]; 150 mg b.i.d.): 1 | fatal major bleeds, number ([3]; 150 mg b.i.d.): 4 | ALT or AST >2xULN, number ([3]; 150 mg q.d.): 2 | ALT or AST >2xULN, rate ([3]; 150 mg q.d.): 3.4 per 100 patient-years | ALT or AST >3xULN and Bili >2xULN within 30 days, number ([3]; 150 mg q.d.): 0 | ALT or AST >3xULN, number ([3]; 150 mg q.d.): 0 | ALT or AST >5xULN, number ([3]; 150 mg q.d.): 0 | Adverse Events leading to premature discontinuation, number ([3]; 150 mg q.d.): 8 | Adverse Events leading to premature discontinuation, rate ([3]; 150 mg q.d.): 13.7 per 100 patient-years | MI, number ([3]; 150 mg q.d.): 0 | Major Bleeds with aspirin, number ([3]; 150 mg q.d.): 0 | Major Bleeds without aspirin, number ([3]; 150 mg q.d.): 3 | Major Bleeds without aspirin, rate ([3]; 150 mg q.d.): 6.5 per 100 patient-years | Major Bleeds, number ([3]; 150 mg q.d.): 3 | Major Bleeds, rate ([3]; 150 mg q.d.): 5.1 per 100 patient-years | Other MACE, number ([3]; 150 mg q.d.): 0 | Stroke and Systemic Thromboembolism, number ([3]; 150 mg q.d.): 3 | TIA, number ([3]; 150 mg q.d.): 0 | ALT or AST >2xULN, number ([3]; 300 mg b.i.d.): 4 | ALT or AST >2xULN, rate ([3]; 300 mg b.i.d.): 4.9 per 100 patient-years | ALT or AST >3xULN and Bili >2xULN within 30 days, number ([3]; 300 mg b.i.d.): 0 | ALT or AST >3xULN, number ([3]; 300 mg b.i.d.): 2 | ALT or AST >3xULN, rate ([3]; 300 mg b.i.d.): 2.4 per 100 patient-years | ALT or AST >5xULN, number ([3]; 300 mg b.i.d.): 1 | ALT or AST >5xULN, rate ([3]; 300 mg b.i.d.): 1.2 per 100 patient-years | Adverse Events leading to premature discontinuation, number ([3]; 300 mg b.i.d.): 21 | Adverse Events leading to premature discontinuation, rate ([3]; 300 mg b.i.d.): 25.6 per 100 patient-years | MI, number ([3]; 300 mg b.i.d.): 0 | Major Bleeds with aspirin, number ([3]; 300 mg b.i.d.): 6 | Major Bleeds with aspirin, rate ([3]; 300 mg b.i.d.): 32.7 per 100 patient-years | Major Bleeds without aspirin, number ([3]; 300 mg b.i.d.): 4
